Test results from ChEMBL document CHEMBL1909046, “DrugMatrix in vitro pharmacology data”.
pIC50, pKi: −log10 of the molar value.

What was measured:
[1] = DRUGMATRIX: GABAA, Flunitrazepam, Central radioligand binding (ligand: [3H] Flunitrazepam); assay type: cell membranes, Rattus norvegicus, Wistar, Brain, Membrane; conditions: Not Active = under 50% inhibition at 10 µM
[2] = biological target: T1, 5-hydroxytryptamine receptor 1A (Rattus norvegicus, UniProt P19327); assay type: cell membranes, CHO-K1, Membrane; conditions: for IC50 / Ki: cho-k1; for pIC50: read-out: IC50; for pKi: read-out: Ki; for all read-outs here: in other assays of this panel Not Active means under 50% inhibition at 10 µM
T1 sequence (P19327 whole entry): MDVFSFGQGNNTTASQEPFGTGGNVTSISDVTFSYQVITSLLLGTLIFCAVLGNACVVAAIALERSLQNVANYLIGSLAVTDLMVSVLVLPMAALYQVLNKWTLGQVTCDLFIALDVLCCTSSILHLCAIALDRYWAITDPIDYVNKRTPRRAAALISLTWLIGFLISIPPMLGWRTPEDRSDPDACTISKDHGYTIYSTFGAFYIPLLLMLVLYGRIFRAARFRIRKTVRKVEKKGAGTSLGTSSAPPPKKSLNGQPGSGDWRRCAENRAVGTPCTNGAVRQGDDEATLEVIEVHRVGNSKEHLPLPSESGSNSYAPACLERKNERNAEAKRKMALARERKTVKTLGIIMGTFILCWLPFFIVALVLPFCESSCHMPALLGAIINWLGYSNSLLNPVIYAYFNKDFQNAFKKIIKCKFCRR

Caspase-1 = biological target: T2, Caspase-1 (Homo sapiens, UniProt P29466); set-up: species or system Escherichia coli;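 note: Caspase-1 enzyme inhibition assay with a peptide substrate; in other assays of this panel Not Active means under 50% inhibition at 10 µM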
T2 sequence (P29466 whole entry): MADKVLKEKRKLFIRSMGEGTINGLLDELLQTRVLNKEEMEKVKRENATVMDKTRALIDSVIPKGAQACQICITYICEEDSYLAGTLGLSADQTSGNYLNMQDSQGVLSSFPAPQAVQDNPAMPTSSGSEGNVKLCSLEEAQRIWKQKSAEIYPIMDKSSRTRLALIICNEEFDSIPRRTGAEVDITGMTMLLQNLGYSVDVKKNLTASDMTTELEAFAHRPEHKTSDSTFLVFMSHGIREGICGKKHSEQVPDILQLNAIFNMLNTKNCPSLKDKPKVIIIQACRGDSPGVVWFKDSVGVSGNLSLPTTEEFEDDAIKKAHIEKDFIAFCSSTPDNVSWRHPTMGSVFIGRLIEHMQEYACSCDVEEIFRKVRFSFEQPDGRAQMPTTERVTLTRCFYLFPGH

D(1A) dopamine receptor = D(1A) dopamine receptor (Homo sapiens, UniProt P21728); assay: DRUGMATRIX: Dopamine D1 radioligand binding (ligand: [3H] SCH-23390); assay type: cell membranes, CHO, Membrane; conditions: Not Active = under 50% inhibition at 10 µM; for IC50 / Ki: cho
Sequence of D(1A) dopamine receptor (P21728 whole entry): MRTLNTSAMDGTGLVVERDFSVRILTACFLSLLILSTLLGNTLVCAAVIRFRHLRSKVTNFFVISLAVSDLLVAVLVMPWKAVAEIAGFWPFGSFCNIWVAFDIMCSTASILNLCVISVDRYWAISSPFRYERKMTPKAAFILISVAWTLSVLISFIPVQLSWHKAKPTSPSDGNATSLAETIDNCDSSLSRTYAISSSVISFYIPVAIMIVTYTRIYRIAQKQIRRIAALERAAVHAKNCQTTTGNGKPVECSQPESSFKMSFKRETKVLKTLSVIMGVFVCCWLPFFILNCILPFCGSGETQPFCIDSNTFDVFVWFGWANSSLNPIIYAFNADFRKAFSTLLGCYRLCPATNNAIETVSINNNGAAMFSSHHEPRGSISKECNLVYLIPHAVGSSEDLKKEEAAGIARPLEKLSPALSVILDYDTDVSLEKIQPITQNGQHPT

[3] = biological target: Sigma non-opioid intracellular receptor 1 (Homo sapiens, UniProt Q99720); assay: DRUGMATRIX: Sigma1 radioligand binding (ligand: [3H] Haloperidol); assay type: cell membranes, Jurkat, Membrane; conditions: jurkat; Not Active = under 50% inhibition at 10 µM
Sequence of Sigma non-opioid intracellular receptor 1 (Q99720 whole entry): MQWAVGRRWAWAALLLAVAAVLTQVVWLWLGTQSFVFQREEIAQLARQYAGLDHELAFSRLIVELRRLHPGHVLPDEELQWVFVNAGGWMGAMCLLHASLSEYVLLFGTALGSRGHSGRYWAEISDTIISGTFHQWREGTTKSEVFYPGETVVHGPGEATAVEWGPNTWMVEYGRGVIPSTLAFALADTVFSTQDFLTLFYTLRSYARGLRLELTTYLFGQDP

[4] = DRUGMATRIX: Imidazoline I2, Central radioligand binding (ligand: [3H] Idazoxan); assay type: cell membranes, Rattus norvegicus, Wistar, Cerebral cortex, Membrane; conditions: Not Active = under 50% inhibition at 10 µM; for pIC50: read-out: IC50; for pKi: read-out: Ki

Row | Compound | IC50 [1] | Ki [1] | IC50 [2] | IC50 (Caspase-1) | IC50 (D(1A) dopamine receptor) | IC50 [3] | IC50 [4] | Ki [4] | Ki [2] | Ki (Caspase-1) | Ki (D(1A) dopamine receptor) | Ki [3] | pIC50 [2] | pKi [2] | pIC50 (D(1A) dopamine receptor; read-out: IC50) | pKi (D(1A) dopamine receptor; read-out: Ki) | pIC50 [4] | pKi [4]
1 | CC1(C)O[C@@H]2C[C@H]3[C@@H]4CCC5=CC(=O)CC[C@]5(C)[C@@]4(F)[C@@H](O)C[C@]3(C)[C@]2(C(=O)CCl)O1 [HALCINONIDE] | Not Active | Not Active | Not Active | Not Active | Not Active | Not Active | Not Active | Not Active |  |  |  |  |  |  |  |  |  | 
2 | CC1CC(OC(=O)C(O)c2ccccc2)CC(C)(C)C1 (stereo not drawn) [CYCLANDELATE] | Not Active | Not Active | Not Active | Not Active | Not Active | Not Active | Not Active | Not Active |  |  |  |  |  |  |  |  |  | 
3 | LEAD (II) ACETATE | Not Active | Not Active | Not Active | Not Active | Not Active | Not Active | Not Active | Not Active | Not Active | Not Active | Not Active | Not Active |  |  |  |  |  | 
4 | Sc1ncnc2nc[nH]c12 [MERCAPTOPURINE ANHYDROUS] | Not Active | Not Active | Not Active | Not Active | Not Active | Not Active | Not Active | Not Active |  |  |  |  |  |  |  |  |  | 
5 | O=c1[nH]c(=O)n([C@H]2C[C@H](O)[C@@H](CO)O2)cc1I [IDOXURIDINE] | Not Active | Not Active | Not Active | Not Active | Not Active | Not Active | Not Active | Not Active |  |  |  |  |  |  |  |  |  | 
6 | CC1(C)S[C@@H]2[C@H](NC(=O)Cc3ccccc3)C(=O)N2[C@H]1C(=O)O [PENICILLIN G] | Not Active | Not Active | Not Active | Not Active | Not Active | Not Active | Not Active | Not Active |  |  |  |  |  |  |  |  |  | 
7 | CC1=C2C(=CO[C@H](C)[C@H]2C)C(O)=C(C(=O)O)C1=O [CITRININ] | Not Active | Not Active | Not Active | Not Active | Not Active | Not Active | Not Active | Not Active |  |  |  |  |  |  |  |  |  | 
8 | Cc1c(C)c2c(c(C)c1O)CC[C@@](C)(CCC[C@H](C)CCC[C@H](C)CCCC(C)C)O2 [ALPHA-TOCOPHEROL] | Not Active | Not Active | Not Active | Not Active | Not Active | Not Active | Not Active | Not Active |  |  |  |  |  |  |  |  |  | 
9 | O=C(O)CCCc1ccc(N(CCCl)CCCl)cc1 [CHLORAMBUCIL] | Not Active | Not Active | Not Active | Not Active | Not Active | Not Active | Not Active | Not Active |  |  |  |  |  |  |  |  |  | 
10 | CC[C@@]1(O)C[C@H](O[C@H]2C[C@H](N(C)C)[C@H](O[C@H]3C[C@H](O)[C@H](O[C@H]4CCC(=O)[C@H](C)O4)[C@H](C)O3)[C@H](C)O2)c2c(cc3c(c2O)C(=O)c2c(O)cccc2C3=O)[C@H]1C(=O)OC [ACLARUBICIN] | Not Active | Not Active | Not Active | Not Active | Not Active | Not Active | Not Active | Not Active |  |  |  |  |  |  |  |  |  | 
11 | CC(=O)O[C@@]12CO[C@@H]1C[C@H](O)[C@@]1(C)C(=O)[C@H](O)C3=C(C)[C@@H](OC(=O)[C@H](O)[C@@H](NC(=O)OC(C)(C)C)c4ccccc4)C[C@@](O)([C@@H](OC(=O)c4ccccc4)[C@H]21)C3(C)C.O.O.O [DOCETAXEL] | Not Active | Not Active | Not Active | Not Active | Not Active | Not Active | Not Active | Not Active |  |  |  |  |  |  |  |  |  | 
12 | CC(C)CN(C[C@@H](O)[C@H](Cc1ccccc1)NC(=O)O[C@H]1CCOC1)S(=O)(=O)c1ccc(N)cc1 | Not Active | Not Active | Not Active | Not Active | Not Active | Not Active | Not Active | Not Active |  |  |  |  |  |  |  |  |  | 
13 | C[C@](N)(Cc1ccc(O)c(O)c1)C(=O)O [METHYLDOPA] | Not Active | Not Active | Not Active | Not Active | Not Active | Not Active | Not Active | Not Active |  |  |  |  |  |  |  |  |  | 
14 | Nc1nc(N)nc(-c2cc(Cl)ccc2Cl)n1.O=C(O)/C=C\C(=O)O [IRSOGLADINE MALEATE] | Not Active | Not Active | Not Active | Not Active | Not Active | Not Active | Not Active | Not Active |  |  |  |  |  |  |  |  |  | 
15 | Nc1ncn([C@@H]2O[C@H](CO)[C@@H](O)[C@H]2O)c(=O)n1 [AZACITIDINE] | Not Active | Not Active | Not Active | Not Active | Not Active | Not Active | Not Active | Not Active |  |  |  |  |  |  |  |  |  | 
16 | LIPOPOLYSACCHARIDE E. COLI O55:B5 | Not Active | Not Active | Not Active | Not Active | Not Active | Not Active | Not Active | Not Active | Not Active | Not Active | Not Active | Not Active |  |  |  |  |  | 
17 | CCCCN1CCCC[C@H]1C(=O)Nc1c(C)cccc1C [LEVOBUPIVACAINE] | Not Active | Not Active | Not Active | Not Active | Not Active | Not Active | Not Active | Not Active |  |  |  |  |  |  |  |  |  | 
18 | CC(C)C(=O)Nc1ccc([N+](=O)[O-])c(C(F)(F)F)c1 [FLUTAMIDE] | Not Active | Not Active | Not Active | Not Active | Not Active | Not Active | Not Active | Not Active |  |  |  |  |  |  |  |  |  | 
19 | CC(C)[C@H]1C(=O)N2CCC[C@H]2[C@]2(O)O[C@](NC(=O)[C@@H]3C=C4c5cccc6[nH]cc(c56)C[C@H]4N(C)C3)(C(C)C)C(=O)N12 [ERGOCORNINE] | Not Active | Not Active |  | Not Active |  | Not Active |  |  |  |  |  |  | 8.51 | 8.75 | 6.53 | 6.83 | 8.35 | 8.52
20 | CC(C)(Oc1ccc(Cl)cc1)C(=O)O [CLOFIBRIC ACID] | Not Active | Not Active | Not Active | Not Active | Not Active | Not Active | Not Active | Not Active |  |  |  |  |  |  |  |  |  | 
21 | CCCC1O[C@@H]2C[C@H]3[C@@H]4CCC5=CC(=O)C=C[C@]5(C)[C@H]4[C@@H](O)C[C@]3(C)[C@]2(C(=O)CO)O1 (stereo partly drawn) [BUDESONIDE] | Not Active | Not Active | Not Active | Not Active | Not Active | Not Active | Not Active | Not Active |  |  |  |  |  |  |  |  |  | 
22 | Clc1cccc(Cl)c1NC1=NCCN1 [CLONIDINE] | Not Active | Not Active |  | Not Active | Not Active | Not Active |  |  |  |  |  |  | 5.27 | 5.51 |  |  | 7.19 | 7.37
23 | Cc1onc(O)c1CC(N)C(=O)O (racemic) [(R,S)-AMPA] | Not Active | Not Active | Not Active | Not Active | Not Active | Not Active | Not Active | Not Active |  |  |  |  |  |  |  |  |  | 
24 | CCOC(=O)C1=C(COCCN)NC(C)=C(C(=O)OC)C1c1ccccc1Cl (stereo not drawn) [AMLODIPINE] | Not Active | Not Active | Not Active | Not Active | Not Active | Not Active | Not Active | Not Active |  |  |  |  |  |  |  |  |  | 
